Assay type in all cases: in vivo
Assay [1] has as its system laser-induced choroidal neovascularization (CNV) in the mouse. Briefly: Mouse laser-induced CNV, prevention paradigm, oral gavage. The following applies: for inhibition of CNV: oral, prevention paradigm.
Assay [2] relates to preretinal neovascularization (NV) in the rat model of oxygen-induced retinopathy. Briefly: Rat model of oxygen-induced retinopathy (OIR), single intravitreal injection. An excerpt: METHODS: Pregnant Sprague-Dawley rats were received at 14 days gestation and subsequently gave birth on Day 22±1 of gestation. Immediately following parturition, pups were pooled and randomized into separate litters (n=17 pups/litter), placed into separate shoebox cages inside oxygen delivery chamber, and subjected to an oxygen-exposure profile from Day 0-14 postpartum. Litters were then placed into room air from Day 14/0 through Day 14/6 (days 14-20 postpartum). Additionally on Day 14/0, each pup was randomly assigned as an oxygen-exposed control or into various treatment groups. For those randomized into an injection treatment group: one eye received a 5 μl intravitreal injection of 0.1%, 0.3%, 0.6%, or 1% RTKi and the contralateral eye received a 5 μl intravitreal injection of vehicle. At Day 14/6 (20 days postpartum), all animals in both studies were euthanized.
Immediately following euthanasia, retinas from all rat pups were harvested, fixed in 10% neutral buffered formalin for 24 hours, subjected to ADPase staining, and fixed onto slides as whole mounts. Digital images were acquired from each retinal flat mount that was adequately prepared. Computerized image analysis was used to obtain a NV clockhour score from each readable sample. Each clockhour out of 12 total per retina was assessed for the presence or absence of preretinal NV. Statistical comparisons using median scores for NV clockhours from each treatment group were utilized in nonparametric analyses. Each noninjected pup represented one NV score by taking the average value of both eyes and was used in comparisons against each dosage group. Because the pups were randomly assigned and no difference was observed between oxygen-exposed control pups from all litters, the NV scores were combined for all treatment groups. P≦0.05 was considered statistically significant.

In assay [3] the test system is existing laser-induced choroidal neovascularization (CNV) in the mouse. Briefly: Mouse laser-induced CNV, regression of existing CNV, intravitreal injection at 7 days post-laser. The following applies: single intravitreal injection, mouse (FIG. 4). The procedure: Methods. CNV was generated by laser-induced rupture of Bruch's membrane. Briefly, 4 to 5 week old male C57BL/6J mice were anesthetized using intraperitoneal administration of ketamine hydrochloride (100 mg/kg) and xylazine (5 mg/kg) and the pupils of both eyes dilated with topical ocular instillation of 1% tropicamide and 2.5% Mydfin®. One drop of topical cellulose (Gonioscopic®) was used to lubricate the cornea. A hand-held cover slip was applied to the cornea and used as a contact lens to aid visualization of the fundus. Three to four retinal burns were placed in randomly assigned eye (right or left eye for each mouse) using the Alcon 532 nm EyeLite laser with a slit lamp delivery system. The laser burns were used to generate a rupture in Bruch's membrane, which was indicated opthalmoscopically by the formation of a bubble under the retina. Only mice with laser burns that produced three bubbles per eye were included in the study. Burns were typically placed at the 3, 6, 9 or 12 o'clock positions in the posterior pole of the retina, avoiding the branch retinal arteries and veins. […]
METHODS: CNV was generated by laser-induced rupture of Bruch's membrane as described above in Example 3. […] Choroidal flat mounts were analyzed as described above in Example 3.

In the case of `Cc1ccc(F)c(NC(=O)Nc2ccc(-c3cccc4[nH]nc(N)c34)cc2)c1` [Compound 86, N-[4-[3-amino-1H-indazol-4-yl]phenyl]-N′-(2-fluoro-5-methylphenyl)urea], the entries for the “inhibition of CNV” value in assay [1] (3 mg/kg/day) and in assay [1] (20 mg/kg/d) were “no significant inhibition” and “complete inhibition of CNV”, respectively. Moreover, the “inhibition of laser-induced CNV” value in assay [1] (oral gavage, mouse (FIG. 6)) was “inhibits laser-induced choroidal neovascularization (CNV)”. For the same compound, in assay [2] (0.1% treated eyes), the “efficacy against preretinal NV” value is “Efficacy was not observed”. For the same compound, the “inhibition of preretinal NV vs vehicle-injected and control noninjected eyes” value in assay [2] (0.3-1% RTKi) was “significant inhibition of preretinal NV”. For the same compound, the “inhibition of preretinal neovascularization (NV)” value in assay [2] (single intravitreal injection, rat OIR (FIG. 1)) is reported as “inhibits preretinal neovascularization (NV)”. Besides, in assay [3], the “regression of existing laser-induced CNV” value is given as “induces regression of existing laser-induced choroidal neovascularization (CNV)”.

The values are drawn from US20090105245A1, “METHODS FOR TREATING MACULAR EDEMA AND OCULAR ANGIOGENESIS USING AN ANTI-INFLAMMATORY AGENT AND A RECEPTOR TYROSINE KINASE INHIBITOR” (priority 2006, published 2009).
